{"source": "paper PMC8778678", "about": "(Viruses, 2022)", "key": {"SARS-CoV-2": {"system": "SARS-CoV-2", "design": "method as in ref 28 = [28]", "conditions": "Vero E6 system; read-out: EC50, SARS-CoV-2 cytopathic effect; cited from earlier work"}, "[1]": {"system": "SARS-CoV-2 BetaCoV/France/IDF0372/2020 strain", "design": "species or system K18-hACE2 mouse", "conditions": "mouse, in vivo"}, "[2]": {"system": "SARS-CoV-2-infected Vero E6 cells", "experiment": "Immunofluorescence assays", "assay_type": "cell-based, African green monkey", "conditions": "IHUMI-6, MOI 0.1, 48 h post-infection, versus infected untreated, p = 0.03"}, "cathepsin B (CTSB)": {"system": "cathepsin B (CTSB)", "design": "method as in ref 16, 33 = [16]", "conditions": "cited from earlier work"}, "[3]": {"system": "SARS-CoV-2 IHUMI-6 strain", "experiment": "microbe, parasite or virus in culture", "assay_type": "cell-based"}, "[4]": {"system": "SARS-CoV-2 hCoV-19_IPL_France strain", "assay_type": "cell-based", "conditions": "Vero E6-TMPRSS2 cells, MOI 0.025, 16 h, increasing doses"}, "[5]": {"system": "SARS-CoV-2 hCoV-19_IPL_France strain", "assay_type": "cell-based", "conditions": "wild-type Vero E6 cells, MOI 0.025, 16 h, increasing doses"}, "[6]": {"system": "autophagic flux in Vero E6 cells", "experiment": "Western blot of autophagy markers LC3-II and p62 with or without Baf A1", "assay_type": "cell-based, African green monkey", "conditions": "uninfected Vero E6 cells, 24 h, with or without Baf A1 for the last 4 h, normalized to GAPDH"}, "[7]": {"system": "SARS-CoV-2-infected Vero E6 cells", "assay_type": "cell-based", "conditions": "4 µM, 2 h, then IHUMI-6 infection 24 h"}, "in vitro [8]": {"experiment": "in vitro", "conditions": "human"}, "cathepsin L (CTSL)": {"system": "cathepsin L (CTSL)", "design": "method as in ref 16, 33 = [16]", "conditions": "cited from earlier work"}, "[9]": {"system": "SARS-CoV-2 IHUMI-6 strain", "assay_type": "cell-based", "conditions": "Vero E6 cells, according to the strain used"}, "Vero E6 cells": {"system": "Vero E6 cells", "conditions": "African green monkey"}, "in vitro [10]": {"experiment": "in vitro", "conditions": "African green monkey, CC50 (half-maximal cytotoxic concentration)"}}, "note": "pEC50: −log10 of the molar value. Entries after “also recorded” stand apart in the source; their conditions may differ. Like-named read-outs stand apart in the source and are kept apart here."}
{"smiles": "Cc1ccc(NCCN(C)CCNc2ccnc3cc(Cl)ccc23)c2c(=O)c3ccccc3sc12", "note": "[ROC-325]", "values": [{"measurement": "pEC50", "setting": "SARS-CoV-2", "result": 5.48}]}
{"smiles": "CC(C)(C)NC1CCN(c2cc(NCc3ccc(Cl)cc3)nc3ccccc23)CC1", "note": "[GNS561, Ezurpimtrostat]", "values": [{"measurement": "lung SARS-CoV-2 viral load", "setting": "[1]", "result": "decline in SARS-CoV-2 virions in the lungs; also recorded: downward trend; also recorded: moderate"}, {"measurement": "lung tissue ultrastructure (autophagic vacuoles, multilamellar bodies)", "setting": "[1]", "result": "autophagic vacuole accumulation with increased electron density"}, {"measurement": "LC3B signal (LC3B clusters)", "setting": "[2]", "result": "enhanced"}, {"measurement": "enzymatic activity of cathepsin B", "setting": "cathepsin B (CTSB)", "result": "significantly impair"}, {"measurement": "selectivity index", "setting": "[3]", "result": "moderate"}, {"measurement": "pEC50", "setting": "[3]; Severe acute respiratory syndrome coronavirus 2, in Homo sapiens, human lung Calu-3 cells, IHUMI-6 strain, 48 h, read-out: EC50 antiviral activity", "result": 5.96}, {"measurement": "SARS-CoV-2 N protein level compared to untreated", "setting": "[4]", "result": "did not alter the N protein level"}, {"measurement": "SARS-CoV-2 N protein level compared to untreated", "setting": "[5]", "result": "did not alter the N protein level"}, {"measurement": "Normalized LC3-II protein expression", "setting": "[6]", "result": "increased in a dose-dependent manner"}, {"measurement": "p62 protein level", "setting": "[6]", "result": "The same observation"}, {"measurement": "volume (area) of autophagic vacuoles in the cytoplasm", "setting": "[7]", "result": "increase in the volume of autophagic vacuoles"}, {"measurement": "CC50 at 48 h", "setting": "in vitro [8]", "result": 4.6, "unit": "µM"}, {"measurement": "enzymatic activity of cathepsin L", "setting": "cathepsin L (CTSL)", "result": "significantly impair"}, {"measurement": "inhibitory concentration relative to remdesivir", "setting": "[9]", "result": "50.5–200 times"}]}
{"smiles": "CCN(CC)CCCC(C)Nc1ccnc2cc(Cl)ccc12", "note": "(centres unmarked) [Chloroquine, chloroquine]", "values": [{"measurement": "CC50", "setting": "Vero E6 cells", "result": 73.2, "unit": "µM"}, {"measurement": "CC50", "setting": "in vitro [10]", "result": 73.2, "unit": "µM"}]}
